Results as given in PubChem BioAssay AID256 (DTP/NCI, 2004).
“And” between values parts separate entries of the source, which are not always exact repeats. Equal entries are not always repeated. Toxic doses and inconclusive results are not listed.

System: CD2F1 mice, L1210 leukemia ip, survival T/C
Assay: NCI In Vivo Anticancer Drug Screen. Data for tumor model L1210 Leukemia (intraperitoneal) in CD2F1 (CDF1) mice
Conditions: higher = longer survival
Method in brief: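 Tumor-bearing mice (transplanted tumor) were split into treated and vehicle control groups, and the measured endpoint of each treated group was divided by that of its vehicle controls.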

[1] = endpoint: mean survival time, dose: 12.5 mg/kg/injection, schedule: Q04DX002 (ip), vehicle: saline with Tween-80
[2] = endpoint: mean survival time, dose: 25.0 mg/kg/injection, schedule: Q04DX002 (ip), vehicle: saline with Tween-80
[3] = endpoint: mean survival time, dose: 200.0 mg/kg/injection, schedule: Q04DX003 (ip), vehicle: saline with Tween-80
[4] = endpoint: mean survival time, dose: 400.0 mg/kg/injection, schedule: Q04DX003 (ip), vehicle: saline with Tween-80
[5] = endpoint: mean survival time, dose: 100.0 mg/kg/injection, schedule: Q04DX003 (ip), vehicle: saline with Tween-80
[6] = endpoint: mean survival time, dose: 50.0 mg/kg/injection, schedule: Q01DX009 (ip), vehicle: saline with Tween-80
[7] = endpoint: mean survival time, dose: 100.0 mg/kg/injection, schedule: Q01DX009 (ip), vehicle: saline with Tween-80
[8] = endpoint: median survival time, dose: 6.25 mg/kg/injection, schedule: Q04DX003 (ip), vehicle: saline with Tween-80
[9] = endpoint: median survival time, dose: 12.5 mg/kg/injection, schedule: Q04DX003 (ip), vehicle: saline with Tween-80
[10] = endpoint: median survival time, dose: 25.0 mg/kg/injection, schedule: Q04DX003 (ip), vehicle: saline with Tween-80
[11] = endpoint: mean survival time, dose: 100.0 mg/kg/injection, schedule: Q01DX001 (ip), vehicle: saline with Tween-80
[12] = endpoint: mean survival time, dose: 200.0 mg/kg/injection, schedule: Q01DX001 (ip), vehicle: saline with Tween-80
[13] = endpoint: mean survival time, dose: 200.0 mg/kg/injection, schedule: Q01DX009 (ip), vehicle: saline with Tween-80

In the case of `O=C(CC(CC(=O)C(c1ccccc1)c1ccccc1)c1ccccc1)C(c1ccccc1)c1ccccc1`, the T/C [1] is reported as 93 % of control, the T/C [2] is reported as 90 % of control and the T/C [3] is reported as 86 % of control. For the same compound, the T/C [4] was 86 % of control.
In the case of `Cc1ncoc1C(=O)O`, the T/C [5] is reported as 109 % of control and the T/C [3] is reported as 104 % of control.
`O=P(N1CCOCC1)(N1CC1)N1CC1` was tested, and the T/C (endpoint: mean survival time, dose: 1.56 mg/kg/injection, schedule: Q01DX009 (ip), vehicle: saline) was 103 % of control, the T/C (endpoint: mean survival time, dose: 3.12 mg/kg/injection, schedule: Q01DX009 (ip), vehicle: saline) was 111 % of control and the T/C (endpoint: mean survival time, dose: 12.5 mg/kg/injection, schedule: Q01DX009 (ip), vehicle: saline) was 180 % of control.
In the case of `CCN=NNc1ccc(C)cc1`, the T/C [6] is reported as 114 % of control, the T/C [7] is reported as 106 % of control and the T/C [5] is reported as 102 % of control. For the same compound, the T/C [3] was 100 % of control.
In the case of `CCOC(=O)C1C(=O)N(c2ccccc2)C(=O)N1Cc1ccccc1` (stereo not given), the T/C (endpoint: mean survival time, dose: 12.5 mg/kg/injection, schedule: Q01DX009 (ip), vehicle: other) is reported as 98 % of control, the T/C (endpoint: mean survival time, dose: 25.0 mg/kg/injection, schedule: Q01DX009 (ip), vehicle: other) is reported as 98 % of control and the T/C (endpoint: mean survival time, dose: 50.0 mg/kg/injection, schedule: Q01DX009 (ip), vehicle: other) is reported as 97 % of control. For the same compound, the T/C (endpoint: mean survival time, dose: 100.0 mg/kg/injection, schedule: Q01DX009 (ip), vehicle: other) was 95 % of control and the T/C (endpoint: mean survival time, dose: 200.0 mg/kg/injection, schedule: Q01DX009 (ip), vehicle: other) was 86 % of control.
In the case of `[C-]#[O+].[Cl][Sn]([Cl])[Cl].[Cl][Sn]([Cl])[Cl].[Pt].c1ccc([PH+](c2ccccc2)c2ccccc2)cc1.c1ccc([PH+](c2ccccc2)c2ccccc2)cc1`, the T/C (endpoint: median survival time, dose: 3.12 mg/kg/injection, schedule: Q04DX003 (ip), vehicle: saline with Tween-80) is reported as 108 % of control, the T/C [8] is reported as 106 % of control and the T/C [9] is reported as 110 % of control. The T/C [10] was 113 % of control, the T/C (endpoint: median survival time, dose: 50.0 mg/kg/injection, schedule: Q04DX003 (ip), vehicle: saline with Tween-80) was 110 % of control and the T/C (endpoint: median survival time, dose: 100.0 mg/kg/injection, schedule: Q04DX003 (ip), vehicle: saline with Tween-80) was 112 % of control. The T/C (endpoint: median survival time, dose: 200.0 mg/kg/injection, schedule: Q04DX003 (ip), vehicle: saline with Tween-80) was 108 % of control.
For `CC(c1ccccc1)n1cncc1CN1CCOCC1` (stereo not given), the T/C [1] was 91 % of control, the T/C (endpoint: mean survival time, dose: 25.0 mg/kg/injection, schedule: Q01DX001 (ip), vehicle: saline with Tween-80) was 102 % of control and the T/C [2] was 98 % of control. For the same compound, the T/C (endpoint: mean survival time, dose: 50.0 mg/kg/injection, schedule: Q01DX001 (ip), vehicle: saline with Tween-80) was 102 % of control, the T/C (endpoint: mean survival time, dose: 50.0 mg/kg/injection, schedule: Q04DX002 (ip), vehicle: saline with Tween-80) was 98 % of control and the T/C [11] was 95 % of control and 98 % of control. The T/C (endpoint: mean survival time, dose: 100.0 mg/kg/injection, schedule: Q04DX002 (ip), vehicle: saline with Tween-80) was 95 % of control.
For `O=C1OC(=O)C2C3C=CC(C4C=CC43)C12` (stereo not given), the T/C [6] was 102 % of control, the T/C [11] was 101 % of control and the T/C [7] was 102 % of control. For the same compound, the T/C [12] was 98 % of control and the T/C [13] was 97 % of control.
In the case of `CC(Nc1ccccc1C(=O)O)C(=O)O` (stereo not given), the T/C [5] is reported as 102 % of control, the T/C [3] is reported as 104 % of control and the T/C [4] is reported as 104 % of control.
In the case of `O=C(O)Cc1cccc2c(=O)cc(-c3ccccc3)oc12`, the T/C (endpoint: median survival time, dose: 12.5 mg/kg/injection, schedule: Q01DX009 (ip), vehicle: suspension in saline) is reported as 113 % of control and 109 % of control, the T/C (endpoint: median survival time, dose: 25.0 mg/kg/injection, schedule: Q01DX009 (ip), vehicle: suspension in saline) is reported as 113 % of control and 105 % of control and the T/C (endpoint: median survival time, dose: 30.0 mg/kg/injection, schedule: Q01DX009 (ip), vehicle: saline with Tween-80) is reported as 112 % of control. For the same compound, the T/C (endpoint: median survival time, dose: 30.0 mg/kg/injection, schedule: Q01DX009 (ip), vehicle: sodium bicarbonate) was 100 % of control, the T/C (endpoint: median survival time, dose: 44.0 mg/kg/injection, schedule: Q01DX009 (ip), vehicle: saline with Tween-80) was 123 % of control and the T/C (endpoint: median survival time, dose: 44.0 mg/kg/injection, schedule: Q01DX009 (ip), vehicle: sodium bicarbonate) was 113 % of control. For the same compound, the T/C (endpoint: median survival time, dose: 45.0 mg/kg/injection, schedule: Q01DX009 (ip), vehicle: sodium bicarbonate) was 107 % of control, the T/C (endpoint: median survival time, dose: 50.0 mg/kg/injection, schedule: Q01DX009 (ip), vehicle: suspension in saline) was 116 % of control and the T/C (endpoint: median survival time, dose: 67.0 mg/kg/injection, schedule: Q01DX001 (ip), vehicle: sodium bicarbonate) was 101 % of control. For the same compound, the T/C (endpoint: median survival time, dose: 67.0 mg/kg/injection, schedule: Q01DX009 (ip), vehicle: sodium bicarbonate) was 113 % of control and 112 % of control, the T/C (endpoint: median survival time, dose: 100.0 mg/kg/injection, schedule: Q01DX001 (ip), vehicle: sodium bicarbonate) was 108 % of control and the T/C (endpoint: median survival time, dose: 100.0 mg/kg/injection, schedule: Q01DX009 (ip), vehicle: saline with Tween-80) was 124 % of control. For the same compound, the T/C (endpoint: median survival time, dose: 100.0 mg/kg/injection, schedule: Q01DX009 (ip), vehicle: sodium bicarbonate) was 119 % of control and 124 % of control, the T/C (endpoint: median survival time, dose: 100.0 mg/kg/injection, schedule: Q01DX009 (ip), vehicle: suspension in saline) was 113 % of control and the T/C (endpoint: median survival time, dose: 150.0 mg/kg/injection, schedule: Q01DX001 (ip), vehicle: sodium bicarbonate) was 112 % of control. For the same compound, the T/C (endpoint: median survival time, dose: 150.0 mg/kg/injection, schedule: Q01DX009 (ip), vehicle: saline with Tween-80) was 108 % of control, the T/C (endpoint: median survival time, dose: 175.0 mg/kg/injection, schedule: Q01DX009 (ip), vehicle: sodium bicarbonate) was 156 % of control and the T/C (endpoint: median survival time, dose: 200.0 mg/kg/injection, schedule: Q01DX009 (ip), vehicle: suspension in saline) was 103 % of control. The T/C (endpoint: median survival time, dose: 223.0 mg/kg/injection, schedule: Q01DX001 (ip), vehicle: sodium bicarbonate) was 108 % of control and the T/C (endpoint: median survival time, dose: 333.0 mg/kg/injection, schedule: Q01DX001 (ip), vehicle: sodium bicarbonate) was 121 % of control.
`CCOC(=O)c1sc(N)c(C(=O)OCC)c1C` was tested, and the T/C [7] was 98 % of control, the T/C [5] was 95 % of control and the T/C [13] was 93 % of control. The T/C [3] was 95 % of control, the T/C (endpoint: mean survival time, dose: 400.0 mg/kg/injection, schedule: Q01DX009 (ip), vehicle: saline with Tween-80) was 91 % of control and the T/C [4] was 101 % of control.
With `C[n+]1c(-c2cccc(-c3ccccc3)c2)c2cc([N+](=O)[O-])ccc2c2ccccc21` the T/C (endpoint: mean survival time, dose: 1.56 mg/kg/injection, schedule: Q01DX009 (ip), vehicle: Klucel (hydroxypropylcellulose) (HPC)) was 93 % of control, the T/C (endpoint: mean survival time, dose: 3.13 mg/kg/injection, schedule: Q01DX009 (ip), vehicle: Klucel (hydroxypropylcellulose) (HPC)) was 94 % of control and the T/C (endpoint: mean survival time, dose: 6.25 mg/kg/injection, schedule: Q01DX009 (ip), vehicle: Klucel (hydroxypropylcellulose) (HPC)) was 98 % of control. The T/C (endpoint: mean survival time, dose: 12.5 mg/kg/injection, schedule: Q01DX009 (ip), vehicle: Klucel (hydroxypropylcellulose) (HPC)) was 92 % of control, the T/C (endpoint: mean survival time, dose: 25.0 mg/kg/injection, schedule: Q01DX009 (ip), vehicle: Klucel (hydroxypropylcellulose) (HPC)) was 96 % of control and the T/C (endpoint: mean survival time, dose: 25.0 mg/kg/injection, schedule: Q01DX009 (ip), vehicle: water) was 97 % of control.
For `NC1CCCCC1N.O=S(=O)([O-])c1cccc(S(=O)(=O)[O-])c1.[Pt+4]`, the T/C [8] was 166 % of control, the T/C [9] was 237 % of control and 370 % of control and the T/C [10] was 296 % of control and 325 % of control.
`O=C(OCC1OC(n2cnc([N+](=O)[O-])n2)C(OC(=O)c2ccccc2)C1OC(=O)c1ccccc1)c1ccccc1` (stereo not given) was tested, and the T/C (endpoint: median survival time, dose: 18.8 mg/kg/injection, schedule: Q01DX005 (ip), vehicle: Klucel (hydroxypropylcellulose) (HPC)) was 100 % of control, the T/C (endpoint: median survival time, dose: 37.5 mg/kg/injection, schedule: Q01DX005 (ip), vehicle: Klucel (hydroxypropylcellulose) (HPC)) was 102 % of control and the T/C (endpoint: median survival time, dose: 75.0 mg/kg/injection, schedule: Q01DX005 (ip), vehicle: Klucel (hydroxypropylcellulose) (HPC)) was 97 % of control. The T/C (endpoint: median survival time, dose: 140.0 mg/kg/injection, schedule: Q01DX005 (ip), vehicle: Klucel (hydroxypropylcellulose) (HPC)) was 96 % of control.
`COc1ccccc1F` was tested, and the T/C (endpoint: mean survival time, dose: 10.0 mg/kg/injection, schedule: Q01DX009 (ip), vehicle: saline with Tween-80) was 100 % of control, the T/C (endpoint: mean survival time, dose: 20.0 mg/kg/injection, schedule: Q01DX009 (ip), vehicle: saline with Tween-80) was 102 % of control and the T/C (endpoint: mean survival time, dose: 40.0 mg/kg/injection, schedule: Q01DX009 (ip), vehicle: saline with Tween-80) was 102 % of control.
In the case of `CCOn1nc(-c2cccc3ccccc23)oc1=O`, the T/C [11] is reported as 91 % of control, the T/C [12] is reported as 95 % of control and the T/C (endpoint: mean survival time, dose: 400.0 mg/kg/injection, schedule: Q01DX001 (ip), vehicle: saline with Tween-80) is reported as 95 % of control.
